One experiment has as its target human TLR9 (Homo sapiens (Human), UniProt Q9NR96). Description: TLR9 inhibition reporter assay (HEK-Blue SEAP).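 Note: SEAP driven by an IFN-β minimal promoter with NF-κB and AP-1 sites, read after 22 h, compounds dosed 0.05 nM–50 µM, inhibition scaled between agonist plus DMSO and reference-inhibitor wells.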 The conditions noted are these: read-out: TLR9 IC50.
The next experiment addresses human TLR7 (Homo sapiens (Human), UniProt Q9NYK1). Put plainly: TLR7 inhibition reporter assay (HEK-Blue SEAP). The class given is cell-based. (A reporter such as luciferase makes a cellular process visible.)
In a further experiment the target is human TLR8 (Homo sapiens (Human), UniProt Q9NR97). Description: TLR8 inhibition reporter assay (HEK-Blue SEAP).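 Note: SEAP driven by IFN-β minimal promoter carrying NF-κB and AP-1 sites, compounds dosed 0.05 nM to 50 µM for 22 h, inhibition scaled between agonist-plus-DMSO and reference-inhibitor wells.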 The conditions noted are these: read-out: TLR8 IC50.
Chain of human TLR8 (Q9NR97 27-1041): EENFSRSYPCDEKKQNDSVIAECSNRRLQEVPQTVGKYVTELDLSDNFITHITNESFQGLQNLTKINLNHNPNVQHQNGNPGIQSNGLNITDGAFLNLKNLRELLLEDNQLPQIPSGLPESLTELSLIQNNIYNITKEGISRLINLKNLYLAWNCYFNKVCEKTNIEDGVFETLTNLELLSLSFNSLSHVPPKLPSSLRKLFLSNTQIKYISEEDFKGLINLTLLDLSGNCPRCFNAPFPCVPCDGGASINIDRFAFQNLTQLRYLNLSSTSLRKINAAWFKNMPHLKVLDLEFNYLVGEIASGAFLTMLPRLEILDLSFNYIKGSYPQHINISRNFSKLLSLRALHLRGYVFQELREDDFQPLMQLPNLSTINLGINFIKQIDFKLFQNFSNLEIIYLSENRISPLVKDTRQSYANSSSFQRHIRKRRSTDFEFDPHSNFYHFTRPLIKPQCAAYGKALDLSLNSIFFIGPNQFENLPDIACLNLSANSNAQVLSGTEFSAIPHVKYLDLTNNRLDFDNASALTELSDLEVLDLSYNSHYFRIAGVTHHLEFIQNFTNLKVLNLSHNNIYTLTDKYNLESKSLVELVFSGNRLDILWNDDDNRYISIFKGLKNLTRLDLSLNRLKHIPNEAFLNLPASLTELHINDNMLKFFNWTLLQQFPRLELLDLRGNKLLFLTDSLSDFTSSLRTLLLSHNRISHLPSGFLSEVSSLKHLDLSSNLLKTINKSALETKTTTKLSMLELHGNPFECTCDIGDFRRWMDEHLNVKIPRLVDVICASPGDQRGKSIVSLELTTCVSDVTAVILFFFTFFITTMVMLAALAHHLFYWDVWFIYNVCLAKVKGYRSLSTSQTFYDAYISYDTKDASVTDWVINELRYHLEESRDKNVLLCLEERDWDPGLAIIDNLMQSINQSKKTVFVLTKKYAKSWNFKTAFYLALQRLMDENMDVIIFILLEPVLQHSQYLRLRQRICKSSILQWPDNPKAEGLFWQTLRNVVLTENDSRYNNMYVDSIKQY
[1] abbreviates: HEK-Blue human TLR9 cells, ODN2006 5 nM.
Where [2] appears, read: HEK-Blue human TLR7 cells, gardiquimod 7.5 μM.
Setting [3] is: HEK-Blue human TLR8 cells, R848 15.9 μM.
Setting [4] is: HEK-Blue cells overexpressing human TLR9, SEAP reporter, ODN2006 5 nM.
Setting [5] is: HEK-Blue cells overexpressing human TLR7, SEAP reporter, gardiquimod 7.5 μM.
[6] abbreviates: HEK-Blue cells overexpressing human TLR8, SEAP reporter, R848 15.9 μM.
Where [7] appears, read: HEK-Blue cells overexpressing human TLR9, ODN2006 5 nM stimulation, SEAP reporter.
Where [8] appears, read: HEK-Blue cells overexpressing human TLR7, gardiquimod 7.5 μM stimulation, SEAP reporter.
[9] abbreviates: HEK-Blue cells overexpressing human TLR8, R848 15.9 μM stimulation, SEAP reporter.

Structures are written as SMILES. Where two headings read alike, the source gives them in different places.

Chain of human TLR9 (Q9NR96 26-1032): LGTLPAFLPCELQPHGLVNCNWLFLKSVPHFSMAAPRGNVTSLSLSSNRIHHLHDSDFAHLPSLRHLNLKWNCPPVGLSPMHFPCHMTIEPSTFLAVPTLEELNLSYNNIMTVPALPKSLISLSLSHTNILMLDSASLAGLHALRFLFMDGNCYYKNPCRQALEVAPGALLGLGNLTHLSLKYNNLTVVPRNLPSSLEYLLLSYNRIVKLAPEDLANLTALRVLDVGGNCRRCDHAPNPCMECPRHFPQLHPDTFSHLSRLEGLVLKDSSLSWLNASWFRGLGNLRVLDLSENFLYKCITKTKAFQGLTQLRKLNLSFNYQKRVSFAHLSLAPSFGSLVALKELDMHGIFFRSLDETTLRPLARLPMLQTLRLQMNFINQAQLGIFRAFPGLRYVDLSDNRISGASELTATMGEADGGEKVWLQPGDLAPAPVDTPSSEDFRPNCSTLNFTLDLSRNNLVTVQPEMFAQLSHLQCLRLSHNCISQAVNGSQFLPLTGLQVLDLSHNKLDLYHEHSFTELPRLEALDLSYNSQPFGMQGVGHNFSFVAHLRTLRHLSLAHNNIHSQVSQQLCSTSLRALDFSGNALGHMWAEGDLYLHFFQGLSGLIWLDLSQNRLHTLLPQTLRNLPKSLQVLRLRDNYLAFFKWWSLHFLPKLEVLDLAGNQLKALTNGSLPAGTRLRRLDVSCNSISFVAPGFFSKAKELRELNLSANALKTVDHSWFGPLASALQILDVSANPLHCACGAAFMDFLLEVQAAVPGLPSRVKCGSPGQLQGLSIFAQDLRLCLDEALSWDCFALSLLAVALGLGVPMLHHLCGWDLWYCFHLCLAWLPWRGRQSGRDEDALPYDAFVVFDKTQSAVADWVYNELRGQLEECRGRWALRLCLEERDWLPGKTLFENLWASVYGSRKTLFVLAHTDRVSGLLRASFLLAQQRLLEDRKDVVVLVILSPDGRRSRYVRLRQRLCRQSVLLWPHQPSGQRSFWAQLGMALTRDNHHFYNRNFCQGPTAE
Chain of human TLR7 (Q9NYK1 27-1049): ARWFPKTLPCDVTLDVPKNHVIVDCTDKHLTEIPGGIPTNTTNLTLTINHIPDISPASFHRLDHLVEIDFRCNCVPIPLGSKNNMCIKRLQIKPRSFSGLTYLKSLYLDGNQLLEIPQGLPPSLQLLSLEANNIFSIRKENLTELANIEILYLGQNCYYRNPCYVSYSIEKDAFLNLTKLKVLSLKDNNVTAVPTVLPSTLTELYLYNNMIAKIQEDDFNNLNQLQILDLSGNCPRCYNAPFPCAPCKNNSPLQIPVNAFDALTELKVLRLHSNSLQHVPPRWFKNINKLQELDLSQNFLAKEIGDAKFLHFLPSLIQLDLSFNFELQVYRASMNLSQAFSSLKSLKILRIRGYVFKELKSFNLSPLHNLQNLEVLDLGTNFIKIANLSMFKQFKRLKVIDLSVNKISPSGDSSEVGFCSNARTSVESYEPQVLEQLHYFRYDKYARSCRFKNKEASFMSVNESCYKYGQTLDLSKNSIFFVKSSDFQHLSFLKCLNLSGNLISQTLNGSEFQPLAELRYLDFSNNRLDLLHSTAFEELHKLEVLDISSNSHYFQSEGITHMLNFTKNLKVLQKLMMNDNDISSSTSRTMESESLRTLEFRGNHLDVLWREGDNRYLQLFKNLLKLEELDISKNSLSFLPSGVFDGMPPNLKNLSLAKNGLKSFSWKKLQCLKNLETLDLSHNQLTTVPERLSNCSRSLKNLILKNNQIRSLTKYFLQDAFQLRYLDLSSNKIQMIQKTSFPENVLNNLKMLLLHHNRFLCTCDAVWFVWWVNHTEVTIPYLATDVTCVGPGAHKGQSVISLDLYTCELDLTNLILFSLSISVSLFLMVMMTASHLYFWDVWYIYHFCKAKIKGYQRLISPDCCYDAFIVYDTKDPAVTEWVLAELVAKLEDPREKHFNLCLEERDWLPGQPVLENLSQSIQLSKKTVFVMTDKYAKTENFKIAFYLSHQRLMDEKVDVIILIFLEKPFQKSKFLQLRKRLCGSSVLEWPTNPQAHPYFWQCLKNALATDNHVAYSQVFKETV

A word on the IC50: it is the concentration that gives 50% inhibition. Take `Cc1c(-c2[nH]c3ccc(N4C[C@H](C)N(C(=O)CN(CCO)C(C)(C)C)C[C@H]4C)nc3c2C(C)C)cn2ncnc2c1C` [Example 954]: the IC50 at human TLR9 (setting [1]) stood at 20900 nM; at human TLR7 (setting [2]) it was 1.9 nM; at human TLR8 (setting [3]), 36 nM.

Regarding `Cc1c(-c2[nH]c3ccc(C4CCC(N(C)CC(=O)N(C)C)CC4)nc3c2C(C)C)cn2ncnc2c1C` (stereo not drawn) [Example 410], the IC50 is 4920 nM at human TLR9 (setting [4]), 5 nM at human TLR7 (setting [5]) and 6.5 nM on human TLR8 (setting [6]).

With `CC(C)c1c(-c2cn(C)c3ncccc23)[nH]c2ccc(C3CCC(NCC4(S(C)(=O)=O)CC4)CC3)nc12` (stereo not drawn) [Example 236], the IC50 at human TLR9 (setting [7]) was determined as 376 nM; at human TLR7 (setting [8]), 3.9 nM; on human TLR8 (setting [9]), 2.8 nM.

As for `COc1cc(-c2[nH]c3ccc(C4CCC(N(C)Cc5ncccn5)CC4)nc3c2C(C)C)cn2ncnc12` (stereo not drawn) [Example 209], the figures for the IC50 on human TLR9 (setting [7]), against human TLR7 (setting [8]) and at human TLR8 (setting [9]) were 641 nM, 0.71 nM and 4 nM, respectively.

As to `COc1cc(-c2[nH]c3ccc(C4CN(CC(N)=O)C4)nc3c2C(C)C)cn2ncnc12` [Example 645], the IC50 was 4090 nM at human TLR9 (setting [4]), 21 nM on human TLR7 (setting [5]) and 303 nM at human TLR8 (setting [6]).

In the case of `Cc1c(-c2[nH]c3ccc(N4C[C@@H](C)N(C(=O)CN(C)C)C[C@@H]4C)nc3c2C(C)C)cn2ncnc2c1C` [Example 842], the IC50 on human TLR9 (setting [1]) is 6920 nM; at human TLR7 (setting [2]), 0.38 nM; at human TLR8 (setting [3]) it was 0.47 nM.

Turning to `Cc1c(-c2[nH]c3ccc(C4CC(N(CC5(C)COC5)CC5(C)COC5)C4)nc3c2C(C)C)cn2ncnc2c1C` (stereo not drawn) [Example 633], the IC50 was determined as 25500 nM on human TLR9 (setting [4]), 40 nM on human TLR7 (setting [5]) and 33 nM at human TLR8 (setting [6]).

With `COc1cc(-c2[nH]c3ccc(OC4CCN(C(C)C)CC4)nc3c2C(C)C)cn2ncnc12` [Example 603, 6-(3-isopropyl-5-((1-isopropylpiperidin-4-yl)oxy)-1H-pyrrolo[3,2-b]pyridin-2-yl)-8-methoxy-[1,2,4]triazolo[1,5-a]pyridine], the IC50 was found to be 1190 nM on human TLR9 (setting [4]), 1.5 nM against human TLR7 (setting [5]) and 5.2 nM at human TLR8 (setting [6]).

With `COCCN1CCN(c2ccc3[nH]c(-c4cc(OC)c5ncnn5c4)c(C(C)C)c3n2)CC1` [Example 131], the values for the IC50 at human TLR9 (setting [7]), on human TLR7 (setting [8]) and at human TLR8 (setting [9]) were 8570 nM, 3.3 nM and 0.63 nM, respectively.

In the case of `Cc1c(-c2[nH]c3ccc(N4[C@H](C)CN(C(=O)CN(C)C)C[C@H]4C)nc3c2C(C)C)cn2ncnc2c1C` [Example 863], the figures for the IC50 on human TLR9 (setting [1]), at human TLR7 (setting [2]) and at human TLR8 (setting [3]) were 6060 nM, 0.52 nM and 17 nM, respectively.

As to `Cc1c(-c2[nH]c3ccc(N4CCN(C(=O)CN(C)C(C)(C)C)C[C@@H]4C)nc3c2C(C)C)cn2ncnc2c1C` [Example 905], the IC50 at human TLR9 (setting [1]) was 12000 nM; against human TLR7 (setting [2]), 0.51 nM; on human TLR8 (setting [3]), 0.82 nM.

For the compound `COc1cc(-c2[nH]c3ccc(C4CCC(N(C)CC(N)=O)CC4)nc3c2C(C)C)cn2ncnc12` (stereo not drawn) [Example 212], the IC50 on human TLR9 (setting [7]) was 1190 nM; against human TLR7 (setting [8]), 3.4 nM; on human TLR8 (setting [9]) it was 6.8 nM.

For `COc1ncc(CN(C)C2CCN(c3ccc4[nH]c(-c5cn6ncnc6c(C)c5C)c(C(C)C)c4n3)CC2)cn1` [Example 67], the figures for the IC50 at human TLR9 (setting [7]), on human TLR7 (setting [8]) and at human TLR8 (setting [9]) were 963 nM, 0.98 nM and 0.42 nM, respectively.

On to `COc1ncnc(OC)c1CN(Cc1c(OC)ncnc1OC)C1CCN(c2ccc3[nH]c(-c4cn5ncnc5c(C)c4C)c(C(C)C)c3n2)CC1` [Example 71], for which the IC50 on human TLR9 (setting [7]) stood at 3900 nM; against human TLR7 (setting [8]), 99 nM; on human TLR8 (setting [9]), 31 nM.

`Cc1c(-c2[nH]c3ccc(C4CCC(N5CCOCC5)CC4)nc3c2C(C)C)cn2ncnc2c1C` (stereo not drawn) [Example 362]: the IC50 is 1630 nM at human TLR9 (setting [7]), 1.6 nM on human TLR7 (setting [8]) and 5.1 nM on human TLR8 (setting [9]).

As for `Cc1cc(-c2[nH]c3ccc(C4CCN(CCS(C)(=O)=O)CC4)nc3c2C(C)C)cn2ncnc12` [Example 552], the IC50 on human TLR9 (setting [4]) was determined as 4100 nM; on human TLR7 (setting [5]), 0.83 nM; at human TLR8 (setting [6]), 2.1 nM.

With `CC(C)c1c(-c2cn(C)c3ncccc23)[nH]c2ccc(C3CCC(N4CC5(COC5)C4)CC3)nc12` (stereo not drawn) [Example 245], the IC50 at human TLR9 (setting [7]) is 343 nM; against human TLR7 (setting [8]) it was 2.7 nM; on human TLR8 (setting [9]) it was 4.7 nM.

For `CNC(=O)CCN1CCN(c2ccc3[nH]c(-c4cn5ncnc5c(C)c4C)c(C(C)C)c3n2)[C@@H](C)C1` [Example 818], the IC50 at human TLR9 (setting [1]) was 12800 nM; against human TLR7 (setting [2]) it was 0.78 nM; on human TLR8 (setting [3]), 0.43 nM.

Take `CC(C)c1c(-c2cn(C)c3ncccc23)[nH]c2ccc(C3CCC(N4CC5(COC5)C4)CC3)nc12` (stereo not drawn) [Example 1036]: the IC50 at human TLR9 (setting [1]) came out at 1930 nM; on human TLR7 (setting [2]) it was 1.3 nM; at human TLR8 (setting [3]), 2.7 nM.

`Cc1c(-c2[nH]c3ccc(C4CCC(N)CC4)nc3c2C(C)C)cn2ncnc2c1C` (stereo not drawn) [Example 469]: the results for the IC50 at human TLR9 (setting [4]), against human TLR7 (setting [5]) and at human TLR8 (setting [6]) were 1710 nM, 0.98 nM and 2.9 nM, respectively.

Turning to `CCN(C1CCC(c2ccc3[nH]c(-c4cn5ncnc5c(C)c4C)c(C(C)C)c3n2)CC1)C1COC1` (stereo not drawn) [Example 1038], the IC50 was 1910 nM at human TLR9 (setting [1]), 0.98 nM against human TLR7 (setting [2]) and 1.3 nM on human TLR8 (setting [3]).

As to `CCCN1CCC(Oc2ccc3[nH]c(-c4cc(OC)c5ncnn5c4)c(C(C)C)c3n2)CC1` [Example 593, 6-(3-isopropyl-5-((1-propylpiperidin-4-yl)oxy)-1H-pyrrolo[3,2-b]pyridin-2-yl)-8-methoxy-[1,2,4]triazolo[1,5-a]pyridine], the IC50 was determined as 974 nM at human TLR9 (setting [4]), 1.4 nM against human TLR7 (setting [5]) and 2.6 nM on human TLR8 (setting [6]).

As to `Cc1nccc(CN(Cc2ccnc(C)n2)C2CCN(c3ccc4[nH]c(-c5cn6ncnc6c(C)c5C)c(C(C)C)c4n3)CC2)n1` [Example 74], the IC50 is above 50000 nM at human TLR9 (setting [7]), 2470 nM against human TLR7 (setting [8]) and 2560 nM on human TLR8 (setting [9]).

Consider `Cc1c(-c2[nH]c3ccc(C4CCN(CC(=O)N(C)C)CC4)nc3c2C(C)C)cn(C)c(=O)c1C` [Example 545], for which the IC50 on human TLR9 (setting [4]) came out at 2460 nM; on human TLR7 (setting [5]) it was 22 nM; on human TLR8 (setting [6]), 7.5 nM.

As for `Cc1c(-c2[nH]c3ccc(C4CC(NC(=O)CN(C)C)C4)nc3c2C(C)C)cn2ncnc2c1C` (stereo not drawn) [Example 644], the IC50 on human TLR9 (setting [4]) is 2690 nM; against human TLR7 (setting [5]), 2.7 nM; on human TLR8 (setting [6]), 4.5 nM.

For `Cc1c(-c2[nH]c3ccc(C4CCC(NCC(=O)NC(C)(C)C)CC4)nc3c2C(C)C)cn2ncnc2c1C` (stereo not drawn) [Example 485], the values for the IC50 on human TLR9 (setting [4]), against human TLR7 (setting [5]) and on human TLR8 (setting [6]) were 2520 nM, 1.1 nM and 2.2 nM, respectively.

In the case of `COc1cc(-c2[nH]c3ccc(C4CN(C(=O)CN(C)C)CCO4)nc3c2C(C)C)cn2ncnc12` (stereo not drawn) [Example 668], the results for the IC50 on human TLR9 (setting [4]), at human TLR7 (setting [5]) and on human TLR8 (setting [6]) were 17500 nM, 1.7 nM and 22 nM, respectively.

As for `COc1cc(-c2[nH]c3ccc(C4CC(N(C)C(=O)CN(C)C)C4)nc3c2C(C)C)cn2ncnc12` (stereo not drawn) [Example 630], the IC50 at human TLR9 (setting [4]) is 1280 nM; against human TLR7 (setting [5]) it was 1.9 nM; at human TLR8 (setting [6]) it was 14 nM.

Consider `COc1cc(-c2[nH]c3ccc(OC4CCN(C5CCOCC5)CC4)nc3c2C(C)C)cn2ncnc12` [Example 607, 6-(3-isopropyl-5-((1-(tetrahydro-2H-pyran-4-yl)piperidin-4-yl)oxy)-1H-pyrrolo[3,2-b]pyridin-2-yl)-8-methoxy-[1,2,4]triazolo[1,5-a]pyridine], for which the IC50 on human TLR9 (setting [4]) was found to be 1140 nM; on human TLR7 (setting [5]) it was 2.1 nM; at human TLR8 (setting [6]), 2.6 nM.

(Values after patent US10544143B2, “4-azaindole compounds” (BRISTOL-MYERS SQUIBB COMPANY, priority 2017, dated 2020).)
